Reference: US8827946B2 (Shin Nippon Biomedical Laboratories, Ltd., priority 2009, dated 2014)
Where two headings read alike, the source gives them in different places.

Test: Phase 1 clinical study, pharmacokinetics of granisetron after intravenous and intranasal administration
Assay type: in vivo, human
Description: This was an open-label safety and PK study conducted at a single site in which healthy volunteers, at weekly intervals, were given the reference intravenous dose, followed by three single escalating nasal doses of TRG at weekly intervals.
Subjects received one intravenous dose of Kytril® (10 μg/kg) followed by three escalating single doses of TRG. There was a 7 day washout period between each dose.
The following PK parameters were tested: AUC0-last (ng·h/mL), AUCinf (ng·h/mL), Tmax (hours), Cmax (ng/mL), T1/2 (hours), clearance, and volume of distribution. No efficacy variables were assessed in this safety and PK study.
The PK parameters T1/2, Tmax, Cmax, AUC0-last, and AUCinf were calculated by using noncompartmental analysis. Values for Tmax and Cmax were reported as the observed values. Terminal elimination rate constants (λz) were determined by log-linear regression of the terminal portion of the concentration-time curves (FIG. 8). Values for T1/2 were calculated as (ln 2)/λz, and AUC0-last was determined by the linear trapezoidal method. AUCinf was calculated as the sum of AUC0-last and Clast/λz where Clast is the last measurable concentration. The absolute bioavailability (F) was calculated for each subject by the dose-corrected AUCinf intranasal divided by AUCinf intravenous. Apparent clearance and volume of distribution were also calculated. To determine the relationship between pharmacokinetic parameters (Cmax, AUClast, and AUC0-∞) and dosage, a multiple regression analysis was performed with log-transformed values. For other pharmacokinetic parameters, analysis of variance (ANOVA) using the mixed effect model was performed to compare between groups.

[1] = human, plasma, 10 ug/kg, intravenous 10 μg/kg (Kytril), healthy male volunteers, mean, N=8
[2] = human, plasma, inhaled or intranasal, intranasal 0.5 mg (TRG capsule, single nostril), healthy male volunteers, mean
[3] = human, plasma, inhaled or intranasal, intranasal 1.0 mg (TRG capsule, single nostril), healthy male volunteers, mean
[4] = human, plasma, inhaled or intranasal, intranasal 2.0 mg (TRG capsule, single nostril), healthy male volunteers, mean
[5] = intranasal 0.5 mg (TRG capsule, single nostril), healthy male volunteers, mean
[6] = intranasal 1.0 mg (TRG capsule, single nostril), healthy male volunteers, mean
[7] = intranasal 2.0 mg (TRG capsule, single nostril), healthy male volunteers, mean

CN1C2CCCC1CC(NC(=O)c1nn(C)c3ccccc13)C2 (stereo not drawn) [Granisetron, endo-N-(9-methyl-9-azabicyclo[3.3.1]non-3-yl)-1-methyl-1H-indazole-3-carboxamide] showed an AUC(0-inf) [1] of 103 ng·h/mL, an AUC(0-t) [1] of 92.4 ng·h/mL and a Cmax [1] of 16.6 ng/mL. The clearance [1] was 158 mL/min, the half-life (human, plasma, 10 ug/kg, intravenous 10 μg/kg (Kytril), healthy male volunteers, mean, N=8, read-out: T1/2 (converted)) was 8.52 h and the Vd (human, plasma, 10 ug/kg, intravenous 10 μg/kg (Kytril), healthy male volunteers, mean, N=8, read-out: Vss) was 108 L. For the same compound, the AUC(0-inf) [2] was 52.7 ng·h/mL, the AUC(0-t) [2] was 46.9 ng·h/mL and the Cmax [2] was 4.95 ng/mL. It also gave a half-life (human, plasma, inhaled or intranasal, intranasal 0.5 mg (TRG capsule, single nostril), healthy male volunteers, mean, read-out: T1/2 (converted)) of 8.9 h, an AUC(0-inf) [3] of 119 ng·h/mL and an AUC(0-t) [3] of 105 ng·h/mL. For the same compound, the Cmax [3] was 13.3 ng/mL, the half-life (human, plasma, inhaled or intranasal, intranasal 1.0 mg (TRG capsule, single nostril), healthy male volunteers, mean, read-out: T1/2 (converted)) was 9.52 h and the AUC(0-inf) [4] was 236 ng·h/mL. For the same compound, the AUC(0-t) [4] was 210 ng·h/mL, the Cmax [4] was 26.6 ng/mL and the half-life (human, plasma, inhaled or intranasal, intranasal 2.0 mg (TRG capsule, single nostril), healthy male volunteers, mean, read-out: T1/2 (converted)) was 9.29 h. It also gave a CL/F [5] of 10.6 L/h, a Vz [5] of 131.4 L and a CL/F [6] of 9.1 L/h. It also gave a Vz [6] of 122.6 L, a CL/F [7] of 9.2 L/h and a Vz [7] of 122.0 L. The Tmax (male, human, plasma, inhaled or intranasal, 0.5 mg, intranasal 0.5 mg (TRG capsule, single nostril), healthy male volunteers, mean, read-out: Tmax) was 1.34 h, the Tmax (male, human, plasma, inhaled or intranasal, 1 mg, intranasal 1.0 mg (TRG capsule, single nostril), healthy male volunteers, mean, read-out: Tmax) was 0.34 h and the Tmax (male, human, plasma, inhaled or intranasal, 2 mg, intranasal 2.0 mg (TRG capsule, single nostril), healthy male volunteers, mean, read-out: Tmax) was 0.63 h. It also gave a Tmax (male, human, plasma, inhaled or intranasal, 2 mg, intranasal, 0.5, 1.0 and 2.0 mg doses together, read-out: overall mean Tmax) of 0.75 h, a half-life (male, human, plasma, inhaled or intranasal, after intranasal administration, all dose levels, read-out: overall mean half-life (converted)) of 9.23 h and a Tmax (male, human, plasma, iv, 10 ug/kg, intravenous 10 μg/kg (Kytril), healthy male volunteers, mean, N=8, read-out: Tmax) of 0.18 h. It also gave a Tmax (male, human, plasma, iv, 10 μg/kg, intravenous rapid infusion 10 μg/kg, all subjects except one, read-out: Tmax) of 0.0833 to 0.167 h.
